Results published in patent US20210008069A1, “THERAPEUTIC AGENT FOR INFLAMMATORY BOWEL DISEASE” (DAIICHI SANKYO COMPANY, LIMITED, priority 2018, published 2021).

Tested on: DSS-induced colitis model
Experiment: Efficacy in model of dextran sulfate sodium-induced colitis
Assay type: in vivo, C57BL/6J mice
Procedure: A colitis model was prepared by allowing 7-week-old male C57BL/6J mice to freely drink a 1.5% aqueous solution of dextran sulfate sodium (hereinafter, DSS) dissolved in pure water purified through a Milli-Q (registered trademark, Merck Millipore) filter (hereinafter, referred to as Milli-Q water). For the control group, only Milli-Q water was administered. Simultaneously with the start of administration of DSS in drinking water, feed prepared by mixing Compound A (0.01%, 0.03%) with powdered FR-2 was administered to the feed administered group. For the vehicle group with feeding, and the control group, to which no DSS was administered, only powdered FR-2 was administered. The day on which the administration of DSS in drinking water and the administration of the compound were started was designated as Day 1, and the administration was continued until Day 8.
Control group: Milli-Q water, FR-2 (N=10) Vehicle group: 1.5% DSS solution, FR-2 (N=10) Compound A 0.01% group: 1.5% DSS solution, FR-2 mixed with 0.01% Compound A (N=10) Compound A 0.03% group: 1.5% DSS solution, FR-2 mixed with 0.03% Compound A (N=10)
All animals were weighed in the morning from Day 1 to Day 8. On Day 8, the abdomen was opened under isoflurane anesthesia, blood was collected from the abdominal vein by an untreated syringe, the duodenum, large intestine, rectum, and anus were removed, and the length of the removed large intestine was measured with an electric caliper. The large intestine was cut open to observe the stool properties and score the degree of diarrhea.

[1] = 0.03% Compound A in feed, Day 1 to Day 8, 1.5% DSS in drinking water, compared with negative control

## Cc1nc(CC2CCN(c3ccc(-c4ccc(C[C@H](C)O)cc4)cc3)CC2)nc(C(=O)NCC(=O)O)c1O [Compound A, [({5-hydroxy-2-[(1-{4′-[(2S)-2-hydroxypropyl]biphenyl-4-yl}piperidin-4-yl)methyl]-6-methylpyrimidin-4-yl}carbonyl)amino]acetic acid]
[1]
  Inhibitory effect on intestinal length shortening (intestinal tract length on Day 8): significant inhibitory effect on intestinal length shortening
  Inhibitory effect on weight loss (amount of change in body weight on Day 8): significant inhibitory effect on weight loss
compound-administered group (0.01%, 0.03% in feed), 1.5% DSS, score 0-3 per Table 1, compared with negative control
  Diarrhea score on Day 8 (stool properties): tended to have improved stool properties
Overall conclusion, mice, administration in feed Day 1 to Day 8
  Effect on the clinical condition in DSS-induced colitis model: improving effect on the clinical condition
